Converted amounts (≈) assume the structure as drawn. Where two headings read alike, the source gives them in different places.
Key:
[1] = Solubility of Compound 1 in process solvents (ICH class solvents, NMP, DMAc, formic acid); assay type: physicochemical; conditions: for solubility: organic solvent or mixture
From the text: The final isolation of Compound 1 requires a polish filtration. For this, the batch must be completely soluble.
The solubility curve of Compound 1 in formic acid-Water is quite steep (see FIG. 7), which enables a volumetrically efficient process.

bromodomain 4 (BRD4) = bromodomain 4 (BRD4) (Homo sapiens, UniProt O60885); conditions: preliminary in vitro studies; see U.S. Pat. No. 9,034,900; cited from earlier work
[2] = test system: Raji, human Burkitts lymphoma cells; conditions: see U.S. Pat. No. 9,034,900; cited from earlier work
[3] = test system: HL-60, human proleukemia cells; conditions: HL-60 cells; see U.S. Pat. No. 9,034,900; cited from earlier work
[4] = test system: NCI-H460, human non-small cell lung cancer cells; conditions: see U.S. Pat. No. 9,034,900; cited from earlier work
[5] = Solubility of bromination starting material, product and impurity in CH2Cl2 (with or without 10% H2SO4); assay type: physicochemical; conditions: for Solubility in CH2Cl2, 10% H2SO4, 10° C.: CH2Cl2 with 10% H2SO4, 10° C.; for Solubility in CH2Cl2, 10% H2SO4, 20° C.: CH2Cl2 with 10% H2SO4, 20° C.; for Solubility in CH2Cl2, 10% H2SO4, 30° C.: CH2Cl2 with 10% H2SO4, 30° C.
Method: This solubility difference is exploited by performing the reaction at a high concentration to drive Compound 5 out of solution once formed, thereby minimizing its ability to react further with the brominating reagent to form Compound 5-a diBr. The reaction is seeded with Compound 5 to initiate its crystallization.

[6] = Solid phase and solution stability of boronic esters; assay type: physicochemical
From the text: The final bond forming step to Compound 1 is a Suzuki-Miyaura coupling between Compounds 2 and 3, as shown in Scheme 3 below (Norio, M. and Suzuki, A., Chem. Rev., 95(7), 2457-2483 (1995)). […] The pinacolatoboronate of the O-alkyl phenol, Compound 7, had acceptable solid phase stability and could be isolated via crystallization.
This was particularly problematic as the isolation process involved a solvent exchange from 2-MeTHF (2-methyl tetrahydrofuran) to iPrOAc (isopropyl acetate), which is not a fast unit operation on scale.

| Solubility in CH2Cl2, 10° C. [5] | Solubility in CH2Cl2, 20° C. [5] | Solubility in CH2Cl2, 30° C. [5] | Solubility in CH2Cl2, 10% H2SO4, 10° C. [5] | Solubility in CH2Cl2, 10% H2SO4, 20° C. [5] | Solubility in CH2Cl2, 10% H2SO4, 30° C. [5] | Structure (SMILES) | other results |
| --- | --- | --- | --- | --- | --- | --- | --- |
| – | – | – | – | – | – | Cn1cc(-c2cc(S(C)(=O)=O)ccc2OCC2CC2)c2ccccc2c1=O [Compound 1, 4-[2-(cyclopropylmethoxy)-S-methylsulfonylphenyl]-2-methylisoquinolin-1-one] | Solubility in almost all ICH Class 3 and common Class 2 (e.g. THF, MeCN) solvents ([1]; ICH Class 3 and common Class 2 solvents): low solubility; solubility ([1]; N-methyl-2-pyrrolidone (NMP), read-out: Solubility in N-methyl-2-pyrrolidone (NMP)): > 50 mg/mL; solubility ([1]; dimethylacetamide (DMAc), read-out: Solubility in dimethylacetamide (DMAc)): > 50 mg/mL; solubility ([1]; formic acid, 20° C., read-out: Solubility in formic acid): > 250 mg/mL; Solubility in a warm MeCN-water mix ([1]; warm MeCN-water mix): reasonable solubility; BRD4 inhibition (bromodomain 4 (BRD4)): observed; other cancer-related inhibitory activity [2]: observed; other cancer-related inhibitory activity [3]: observed; other cancer-related inhibitory activity [4]: observed |
| 30 mg/mL (≈ 174 mM) | 46 mg/mL (≈ 267 mM) | 198 mg/mL (≈ 1150 mM) | 19 mg/mL (≈ 110 mM) | 51 mg/mL (≈ 296 mM) | 390 mg/mL (≈ 2260 mM) | CS(=O)(=O)c1ccc(O)cc1 [Compound 4, 4-(methylsulfonyl)phenol] | – |
| 5 mg/mL (≈ 15.2 mM) | 7 mg/mL (≈ 21.2 mM) | 10 mg/mL (≈ 30.3 mM) | 5 mg/mL (≈ 15.2 mM) | 7 mg/mL (≈ 21.2 mM) | 14 mg/mL (≈ 42.4 mM) | CS(=O)(=O)c1cc(Br)c(O)c(Br)c1 [Compound 5-a diBr] | – |
| 6 mg/mL (≈ 23.9 mM) | 8 mg/mL (≈ 31.9 mM) | 20 mg/mL (≈ 79.6 mM) | 5 mg/mL (≈ 19.9 mM) | 8 mg/mL (≈ 31.9 mM) | 11 mg/mL (≈ 43.8 mM) | CS(=O)(=O)c1ccc(O)c(Br)c1 [Compound 5] | – |
| – | – | – | – | – | – | CC1(C)OB(c2cc(S(C)(=O)=O)ccc2OCC2CC2)OC1(C)C [Compound 7] | Solution stability ([6]; in solution, decomposing primarily to proteodeborylated compound 10): poor; Solid phase stability ([6]; solid phase): acceptable |

From patent US11566004B2, “Process for the preparation of bromodomain inhibitor” (Celgene Quanticel Research, Inc., priority 2018, dated 2023)
